Patent US20210330611A1, “THERAPY FOR NEUROLOGICAL DISEASES/DISORDERS” (priority 2020, published 2021)
Where two headings read alike, the source gives them in different places.

What was measured:
MOG35-55 EAE = test: Active MOG35-55 EAE, clinical scores; type: in vivo, mouse; conditions: mouse, in vivo, 5 mg/kg
[1] = system: fibrin- and LPS-induced microglia activation; test: cells; type: cell-based, rat; conditions: for inhibition at 10 µM: Rattus norvegicus
naïve CD4+ T cells = test: Non-antigen-specific T-cell proliferation (anti-CD3/CD28); type: cell-based, mouse; conditions: 5, 0.5 or 0.05 μM, FIG. 14G, H
Protocol: T-cell proliferation assay. For antigen-specific T cell proliferation, näive CD4+ T cells were magnetically sorted from the TCR-transgenic 2D2 mice using naïve CD4+ T cell isolation kits (Miltenyi Biotec). […]. For non-antigen-specific T cell proliferation, naïve CD4^+ T cells were treated with acivicin and stimulated with mouse T-activator CD3/CD28 Dynabeads (Thermo Fisher Scientific) for 3 d. Cells were then fixed, permeabilized, and stained with FITC-conjugated anti-BrdU (BrdU Flow Kits, BD Biosciences).

microglia = type: in vivo, mouse; conditions: healthy mice, 14 days, FIG. 12
Protocol: FIGS. 12A-E. Effects of acivicin on microglia, macrophage and whole blood cell numbers. a, Representative images showing morphology and density of primary microglia treated with vehicle or acivicin for 48 h stained with nuclei marker Hoechst or CellMask Red Whole Cell Stain. Quantification of the total number of microglia. Data are representative of one experiment with technical replicates (open symbols). b, Representative confocal images showing morphology and density of control- and acivicin-treated BMDMs treated for 24 h. Scale bar, 100 μm. Insets depict digitally zoomed in areas of regions of interest. Quantification of the total number of BMDMs in the field of view. […] Cell viability of single CD45^+ cells was assessed by Sytox blue live/dead nuclei stain. Quantification of percent cell viability of CD45^+ BMDMs treated with acivicin or left untreated. Data are from 2 independent experiments with n=4 mice per group (mean±s.d.). d, Quantification of complete blood count analysis of white blood cells (WBCs), red blood cells (RBC), platelets (PLT) (left) and composition of WBCs (right) of blood samples from healthy mice treated with saline or acivicin for 10 days. […] Quantification of total microglia cell numbers in healthy mice treated with acivicin or saline. […]

[2] = type: in vivo, mouse; conditions: healthy mice, 10 days, FIG. 12
Protocol: Blood sampling and hematological analysis. Hematological analysis was carried out for mice treated with saline or acivicin for 10 days. Blood samples were collected from the heart of each anesthetized mouse via cardiac puncture. The complete blood cell counts were measured with an automated blood count analyzer (Hemavet, Drew Scientific Inc).

human macrophages = test: ROS production (DHE) in fibrin-stimulated human macrophages; type: cell-based; conditions: fibrin 24 h, 5 μM inhibitor, FIG. 6b
Protocol: Human macrophage cultures. Human peripheral blood mononuclear cells (PBMCs) were purchased from AllCells, LLC (Alameda, Calif.). To differentiate PBMC into monocyte-derived macrophages, 2×10^6 PBMC/mL were plated in RPMI-1640 media supplemented with 10% FBS, 1% penicillin-streptomycin (Corning), and 50 ng/ml human M-CSF (300-25, Peprotech) in tissue-culture treated dishes (Corning). After 24 h, non-adherent cells were removed, and adherent cells were cultivated for 7-8 additional days at 37° C. in 5% CO2 to promote their full differentiation into macrophages. Oxidant detection with DHE. Intracellular concentrations of ROS were measured using dihydroethidium (DHE) as described (9). Cultured BMDMs or human macrophages were incubated in medium containing 5 μM DHE (Invitrogen) for 30 min Cells were plated on 96-well, black μ-clear-bottom microtiter plates (Greiner Bio-One) pre-coated with 25 μg/ml fibrin. For GGT inhibition, BMDMs or human macrophages were pre-incubated with 5 μM acivicin or GGsTop for 1 h, and the cells were plated on fibrin-coated 96-well plates as described above. PBS was used as vehicle control. Cells were then incubated for 24-48 h and fixed with 4% PFA for 10 min. The DHE fluorescence was detected at an excitation/emission wavelength of 518 nm/605 nm using a SpectraMax M5 microplate reader (Molecular Devices) with SoftMax Pro 5.2 software (Phoenix Technologies Ltd.).

SMILES: N[C@H](C(=O)O)[C@@H]1CC(Cl)=NO1 [Acivicin, (2S)-2-amino-2-[(5S)-3-chloro-4,5-dihydro-1,2-oxazol-5-yl] acetic acid]
- disease onset and severity (MOG35-55 EAE): delayed
- Quadrant (FIG. 5b) ([1]; HTS of 1907 compounds, quadrant by fibrin and LPS inhibition): Q2
- inhibition at 10 µM ([1]; Microglia, HTS hit classification, read-out: Hit): > 50%
- inhibition at 10 µM ([1]; hit classification in microglia HTS, read-out: Cherry-picked Hit (Suppl. Table 7)): > 50%
- Quadrant (FIG. 5b) ([1]; Table 1, screen at 10 μM): Q2
- Quadrant (FIG. 5b) ([1]; Table 2, screen at 10 μM): Q2
- Activity ([1]; Table 7, fib = fibrin, LPS, tox = toxicity): fib/LPS
- Quadrant (FIG. 5b) ([1]; quadrant by fibrin and LPS inhibition in HTS of 1907 compounds): Q2
- T cell proliferation (BrdU) without APCs, anti-CD3 and anti-CD28 (naïve CD4+ T cells): only in the presence of APCs
- microglia numbers in the spinal cord in vivo (microglia): did not affect
- total cell blood count in vivo [2]: did not affect
- ROS generation (DHE) in human macrophages (human macrophages): decreased
